Experimental findings from US11293911B2, “Multi-phase liquid composition, device for measuring permeability of drugs, and method for measuring permeability of drugs” (priority 2017, dated 2022) are described below.

Data set [1] can be described thus: in vitro. The format is in vitro ADME. Particulars: for Papp: not told, read-out: Permeability according to examples. The protocol: A DOPC lipid dissolved in chloroform and commercially available was collected in a glass vial, and chloroform was removed by blowing nitrogen.
The lipid film was left in the glass vial, to which the organic phase (1:1 (v/v) mixture of squalane and silicone oil (AR20)) was added, and then sonication was performed for 10-15 minutes to uniformly disperse the lipid in the oil.
Finally, an oil solution in which the lipid was dissolved (DOPC concentration: 4 mg/ml) was obtained.
Then, distilled water was added to a UV cuvette and the prepared lipid solution was added thereon.
At this time, the process of producing the lipid bilayer was performed by adding a small amount of fluorescently labeled lipid and observing it through a fluorescence microscope.
At this time, a magnetic stirring bar is placed under the UV cuvette and the lower water layer is continuously stirred during the measurement. This makes it unnecessary to consider the time when the drug passes through the lipid bilayer and diffuses to the area irradiated with UV.
The R2 value was calculated in order to determine how well the concentration and absorbance correlate at each wavelength, and the wavelength at which this value exceeds 0.99 was irradiated in the experiment.
More specifically, in FIG. 3, CA(t) means the concentration of an acceptor solution over time (where the first aqueous phase is located under the cuvette, where the drug reaches through the first lipid bilayer) and Ceq means the equilibrium concentration of the acceptor solution droplet (serving as a donor solution to provide a drug), and the acceptor solution, and is calculated by the following General Formula 1. Ceq=CD(0)VD/(VD+VA) [General Formula 1]
In General Formula 1, VA and VD are respectively the volume of a first aqueous phase (acceptor) and the volume of a second aqueous phase (donor, droplet), and CD(0) represents the drug concentration of the initial aqueous solution droplet.

Data set [2] is described as follows: in vitro. Particulars: PAMPA. In general terms: PAMPA measures passive passage across an artificial lipid membrane.
Protocol: Subsequently, the drug concentration of the portion corresponding to the cell membrane inside (acceptor) is obtained by HPLC or UV spectroscopy, from which the membrane permeability of the corresponding drugs is calculated.
[3] abbreviates: DOPC lipid bilayer, organic phase 1:1 (v/v) squalane and silicone oil (AR20), 1 μl donor droplet, real-time UV absorbance of stirred acceptor water layer.

Like-named read-outs stand apart in the source and are kept apart here.

For the molecule `CC(=O)Nc1ccc(O)cc1` [Acetaminophen], the Papp came out at 113 ×10⁻⁶ cm/s in the data set “in vitro [1]” (setting [3]) and 3.5 ×10⁻⁶ cm/s in the data set “in vitro [2]”.

As to `Cc1cc(=O)n(-c2ccccc2)n1C` [Antipyrine], in the data set “in vitro [1]”, the Papp stood at 200 ×10⁻⁶ cm/s. With `Cn1c(=O)c2c(ncn2C)n(C)c1=O` [Caffeine], the Papp in “in vitro [1]” (setting [3]) was 248 ×10⁻⁶ cm/s.

`CN/C(=N/CCSCc1nc[nH]c1C)NC#N` [Cimetidine]: the “Permeability to the lipid bilayer (in words)” value in “in vitro [1]” (DOPC lipid bilayer, method of the example) is listed as “very low permeability”. Moreover, in “in vitro [1]” (setting [3]), the Papp was 7.2 ×10⁻⁶ cm/s.
